Test results taken from patent US9795607B2, “Substituted pyrrolopyrimidine compounds, compositions thereof, and methods of treatment therewith” (Signal Pharmaceutical, LLC, priority 2013, dated 2017).

Test system: Triple negative breast cancer cell line CAL51
Assay: Cell Titer Glo proliferation assay, CAL51
Type: cell-based
Details: Homo sapiens, CAL-51; CAL51 cell proliferation, Cell Titer Glo; read-out: Act. Level
Method: Cell Titer Glo Proliferation Assay.
Triple negative breast cancer cell line CAL51 was purchased from DSMZ. […] Allcell lines were maintained in growth media consisting of 90% high glucose Dulbecco's Modified Eagle Medium or RPMI1640 (Invitrogen), 10% fetal bovine serum (Hyclone), and 2 mM L-glutamine (Invitrogen). […] After overnight culture, compound stock (30 mM) was diluted serially in DMSO, further diluted in growth media, and was added to each well as a 10× concentrated solution in a volume of 11 μL, mixed, and allowed to incubate with cells. The compound vehicle (DMSO) was maintained at a final concentration of 0.2% in all wells. After 72 h, 100 μL of Cell Titer Glo solution (Promega) was added to each well of the 96-well plate. The plate was placed on a shaker for 2 minutes. After 10 minutes incubation, the luminescence signal was detected with Envision microplate reader (Perkin Elmer).

Q: With `COc1cc(C(=O)NC2COC2)ccc1Nc1nc(OC2CCOCC2)c2c(-c3ccc4nc(C)oc4c3)c[nH]c2n1` [Example 368, 3-methoxy-4-(5-(2-methylbenzo[d]oxazol-6-yl)-4-(tetrahydro-2H-pyran-4-yloxy)-7H-pyrrolo[2,3-d]pyrimidin-2-ylamino)-N-(oxetan-3-yl)benzamide] as the compound, how does the IC50 read?
A: The IC50 was < 100 nM.

Q: How did the IC50 turn out when `COc1cc(C(=O)NC2COC2)ccc1Nc1nc(OC2CC2)c2c(-c3ccc4nc(C)oc4c3)c[nH]c2n1` [Example 369, 4-(4-cyclopropoxy-5-(2-methylbenzo[d]oxazol-6-yl)-7H-pyrrolo[2,3-d]pyrimidin-2-ylamino)-3-methoxy-N-(oxetan-3-yl)benzamide] was run?
A: Its IC50 is 100 to 400 nM.

Q: With `COc1cc(C(=O)NC2COC2)ccc1Nc1nc(OC(C)(C)C)c2c(-c3ccc4nc(C)oc4c3)c[nH]c2n1` [Example 370, 4-(4-tert-butoxy-5-(2-methylbenzo[d]oxazol-6-yl)-7H-pyrrolo[2,3-d]pyrimidin-2-ylamino)-3-methoxy-N-(oxetan-3-yl)benzamide] as the compound, how does the IC50 read?
A: Its IC50 is < 100 nM.

Q: Which IC50 does the source give for `Cc1nc2ccc(-c3c[nH]c4nc(Nc5cnn(CC(C)(C)O)c5Cl)nc(OC5CCCC5)c34)cc2o1` [Example 371, 1-(5-chloro-4-(4-(cyclopentyloxy)-5-(2-methylbenzo[d]oxazol-6-yl)-7H-pyrrolo[2,3-d]pyrimidin-2-ylamino)-1H-pyrazol-1-yl)-2-methylpropan-2-ol] here?
A: The IC50 was < 100 nM.

Q: How did the IC50 turn out when `CNC(=O)c1ccc(-c2c[nH]c3nc(Nc4cnn(CC(C)(C)O)c4Cl)nc(OC4CCC4)c23)cc1` [Example 372, 4-(2-(5-chloro-1-(2-hydroxy-2-methylpropyl)-1H-pyrazol-4-ylamino)-4-cyclobutoxy-7H-pyrrolo[2,3-d]pyrimidin-5-yl)-N-methylbenzamide] was run?
A: Its IC50 is < 100 nM.

Q: For `CNC(=O)c1ccc(-c2c[nH]c3nc(Nc4ccc(C(=O)NC5COC5)cc4OC)nc(OCCOC)c23)cc1` [Example 373, 3-methoxy-4-(4-(2-methoxyethoxy)-5-(4-(methylcarbamoyl)phenyl)-7H-pyrrolo[2,3-d]pyrimidin-2-ylamino)-N-(oxetan-3-yl)benzamide], which IC50 is on record?
A: The IC50 was 100 to 400 nM.

Q: Which IC50 does the source give for `COc1cc(C(=O)NC2CN(C)C2)ccc1Nc1nc(O[C@H]2CCOC2)c2c(-c3ccc4nc(C)oc4c3)c[nH]c2n1` [Example 374, (S)-3-methoxy-N-(1-methylazetidin-3-yl)-4-(5-(2-methylbenzo[d]oxazol-6-yl)-4-(tetrahydrofuran-3-yloxy)-7H-pyrrolo[2,3-d]pyrimidin-2-ylamino)benzamide] here?
A: The IC50 was < 100 nM.

Q: Which IC50 does the source give for `CNC(=O)c1ccc(-c2c[nH]c3nc(Nc4ccc(C(=O)NC5CN(C)C5)cc4OC)nc(O[C@H]4CCOC4)c23)cc1` [Example 375, (S)-3-methoxy-N-(1-methylazetidin-3-yl)-4-(5-(4-(methylcarbamoyl)phenyl)-4-(tetrahydrofuran-3-yloxy)-7H-pyrrolo[2,3-d]pyrimidin-2-ylamino)benzamide] here?
A: Its IC50 is 400 to 1000 nM.

Q: With `CNC(=O)c1ccc(-c2c[nH]c3nc(Nc4ccc(C(=O)NC5COC5)cc4OC)nc(O[C@H]4CCOC4)c23)cc1` [Example 376, (S)-3-methoxy-4-(5-(4-(methylcarbamoyl)phenyl)-4-(tetrahydrofuran-3-yloxy)-7H-pyrrolo[2,3-d]pyrimidin-2-ylamino)-N-(oxetan-3-yl)benzamide] as the compound, how does the IC50 read?
A: Its IC50 is < 100 nM.

Q: `Cc1nc2ccc(-c3c[nH]c4nc(Nc5cnn(C6CCOCC6)c5Cl)nc(OC5CCCC5)c34)cc2o1` [Example 377, N-(5-chloro-1-(tetrahydro-2H-pyran-4-yl)-1H-pyrazol-4-yl)-4-(cyclopentyloxy)-5-(2-methylbenzo[d]oxazol-6-yl)-7H-pyrrolo[2,3-d]pyrimidin-2-amine] was tested. Which IC50 did it give?
A: Its IC50 is < 100 nM.

Q: Which IC50 does the source give for `COCCn1ncc(Nc2nc(OC3CCCC3)c3c(-c4ccc5nc(C)oc5c4)c[nH]c3n2)c1Cl` [Example 378, N-(5-chloro-1-(2-methoxyethyl)-1H-pyrazol-4-yl)-4-(cyclopentyloxy)-5-(2-methylbenzo[d]oxazol-6-yl)-7H-pyrrolo[2,3-d]pyrimidin-2-amine] here?
A: The IC50 was < 100 nM.
